The target of series [1] is T1, Enoyl-[acyl-carrier-protein] reductase [NADH] (Mycobacterium tuberculosis) (UniProt P9WGR1).
T1 sequence (whole entry): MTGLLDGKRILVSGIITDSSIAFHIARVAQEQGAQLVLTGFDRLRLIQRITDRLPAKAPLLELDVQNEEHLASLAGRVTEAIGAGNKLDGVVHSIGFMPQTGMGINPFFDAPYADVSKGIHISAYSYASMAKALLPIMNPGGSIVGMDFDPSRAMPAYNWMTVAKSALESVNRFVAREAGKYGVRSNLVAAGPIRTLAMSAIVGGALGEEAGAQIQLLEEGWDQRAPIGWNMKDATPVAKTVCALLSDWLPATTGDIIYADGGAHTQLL
The series can be described thus: Inhibition of Mycobacterium tuberculosis InhA assessed as residence time.

The test system of series [2] is Mycobacterium tuberculosis. The series can be described thus: Antibacterial activity against Mycobacterium tuberculosis assessed as bacterial growth inhibition. Type of series: functional.
In series [3] the test system is Mycobacterium tuberculosis. The series can be described thus: Antibacterial activity against wild type Mycobacterium tuberculosis H37Rv assessed as bacterial growth inhibition incubated for 6 days by HTS assay. The format is functional. The note with it: 144 h, time 6 day.
The test system of series [4] is Mycobacterium tuberculosis. Briefly: Antibacterial activity against wild type Mycobacterium tuberculosis H37Rv assessed as bacterial growth inhibition. Type of series: functional, organism-based.
Series [5] relates to Mycobacterium tuberculosis. The series can be described thus: Antibacterial activity against wild type Mycobacterium tuberculosis H37Rv infected in BALB/c mouse assessed as bacterial growth inhibition po administrated for 5 days a week via gavage for 4 weeks. The format is functional. The note with it: 672 h.
The test system of series [6] is Mycobacterium tuberculosis. Briefly: Antibacterial activity against Mycobacterium tuberculosis infected in mouse RAW264.7 cells assessed as bacterial growth inhibition by REMA assay. Type of series: functional, organism-based.
For series [7], the system named is Mycobacterium tuberculosis. The series can be described thus: Antibacterial activity against Mycobacterium tuberculosis H37Rv infected in mouse RAW264.7 cells assessed as bacterial growth inhibition by REMA assay. Type of series: functional.
The test system of series [8] is Mycobacterium tuberculosis. The series can be described thus: Antibacterial activity against Mycobacterium tuberculosis H37Rv assessed as bacterial growth inhibition incubated for 6 days by resazurin staining based assay. The format is functional. To be noted: 144 h, time 6 day. On the technique in general: The colour change of resazurin is a common sign of viable cells or microbes.

Series [9] relates to Mycobacterium tuberculosis. Briefly: Antibacterial activity against Mycobacterium tuberculosis H37Rv (ATCC 27294) assessed as bacterial growth inhibition by MABA assay. The format is functional.
Series [10] relates to Mycobacterium tuberculosis. Briefly: Antibacterial activity against Mycobacterium tuberculosis H37Rv infected in human THP-1 cells assessed as bacterial growth inhibition. Type of series: functional.
For series [11], the system named is Mycobacterium tuberculosis. The series can be described thus: Antibacterial activity against Mycobacterium tuberculosis MmpL3 assessed as bacterial growth inhibition by HTS assay. Type of series: functional.
Series [12] has as its system Mycobacterium tuberculosis. Briefly: Antibacterial activity against Mycobacterium tuberculosis assessed as bacterial growth inhibition by HTS assay. The format is functional.
For series [13], the system named is Mycobacterium tuberculosis. The series can be described thus: Antibacterial activity against wild type Mycobacterium tuberculosis H37Rv assessed as bacterial growth inhibition by alamar blue staining based assay. Type of series: functional.
In series [14] the test system is Mycobacterium tuberculosis. The series can be described thus: Antibacterial activity against Mycobacterium tuberculosis H37Rv (ATCC 27294) assessed as bacterial growth inhibition incubated for 7 days by MABA assay. The note with it: 168 h, time 7 day. Type of series: functional.
The nature of series [15]: Oral bioavailability in mouse. Type of series: ADME, organism-based. To be noted: in vivo.
Series [16] relates to Mycobacterium tuberculosis. Briefly: Antibacterial activity against Mycobacterium tuberculosis H37Rv infected in mouse RAW264.7 cells assessed as bacterial growth inhibition. The format is functional.
Series [17] relates to Mycobacterium tuberculosis. Briefly: Antibacterial activity against Mycobacterium tuberculosis H37RV ATCC 27294 assessed as bacterial growth inhibition. The format is functional.
Series [18] relates to Mycobacterium tuberculosis. Briefly: Antibacterial activity against Mycobacterium tuberculosis H37Rv MTCC 300 assessed as bacterial growth inhibition by alamar blue assay. Type of series: functional.

Converted amounts (≈) assume the structure as drawn.

Usually MIC stands for the least concentration at which growth counts as inhibited. The IC50 is the point on the concentration scale where inhibition reaches its midpoint. In general, MIC90 refers to the lowest concentration that inhibits either 90% of growth or 90% of the strains tested, depending on the study. A word on the bioavailability: it is the share of a dose that reaches the circulation, judged against a reference dose that is usually intravenous. Lower therefore signals little systemic uptake. What is called MIC50 is an inhibitory concentration at the 50% level, which refers to growth in some studies and to a panel of isolates in others.

Take `CCCCCCc1ccc(Oc2ccccc2C#N)c(O)c1`: in [1], the TIME stood at 1.33 h. Further, the minimal inhibitory concentration (MIC) in [2] amounted to 11 µM (≈ 3.25 µg/mL). `CC1(C)CCC(NC(=O)c2cc3c(F)cc(F)cc3[nH]2)CC1`: the MIC in series [3] was 0.023 µM (≈ 0.00705 µg/mL).

`C[C@H]1COC2(CCN(c3nc(=O)c4cc(C(F)(F)F)cc([N+](=O)[O-])c4s3)CC2)O1` [BTZ-043]: the MIC stood at 0.00023 µM in series [4] and 1 ng/mL (≈ 2.32 nM) in series [5]. `CC[C@@H](CO)NCCN[C@@H](CC)CO` [ETHAMBUTOL]: in [2], the MIC was 10 µM (≈ 2.04 µg/mL). As to `Oc1cc(Cl)ccc1Oc1ccc(Cl)cc1Cl` [TRICLOSAN], the MIC in series [2] stood at 138 µM (≈ 40 µg/mL). Consider `Cc1c(OCC(F)(F)F)ccnc1CSc1nc2ccccc2[nH]1` [LANSOPRAZOLE SULFIDE], for which the IC50 in [6] was determined as 590 nM; in [4], 460 nM. Further, the MIC90 in series [7] was 1.13 µM (≈ 0.399 µg/mL). Consider `CCOC(=O)NC(=O)c1ccsc1NC(=O)c1nc2ccccc2s1`, for which the MIC in [2] came to 0.027 µM (≈ 0.0101 µg/mL).

Consider `FC(F)(F)Oc1ccc(Oc2ccc(CN3CCC4(CC3)OCCc3sccc34)cc2)cc1`, for which the MIC in series [8] came to 0.06 µM (≈ 0.0285 µg/mL). For the compound `CCc1ccc([C@H]2C[C@@H](C(F)(F)F)n3ncc(C(=O)NCc4ccc(OC)cc4)c3N2)cc1`, the MIC in series [8] was 0.3 µM (≈ 0.138 µg/mL).

In the case of `CCc1ccn2c(C(=O)NCc3ccc(C)cc3)c(C)nc2c1`, in series [9], the MIC came to 0.004 µM (≈ 0.00123 µg/mL). `Cc1c(Cn2cc(C(=O)NCCO)c3ncccc32)ncnc1N(C)C`: the MIC in series [10] turned out to be 0.5 µM (≈ 0.177 µg/mL). In the case of `CCCn1cnc2cc(NCc3ccc(Cl)cc3Cl)ccc21`, the minimum inhibitory concentration (MIC) in series [11] was 16 µM (≈ 5.35 µg/mL). Take `Fc1cc2nc(Cc3ccc(Cl)cc3)[nH]c2cc1-n1ccnc1`: the minimum inhibitory concentration (MIC) in series [11] worked out at 76.5 µM (≈ 25 µg/mL). As to `Cc1c(Cn2cc(C(=O)NCCO)c3ncccc32)ncnc1OC(F)F`, the MIC in series [10] came out at 0.78 µM (≈ 0.294 µg/mL). Turning to `Cc1c(CN2CCOCC2)cc(-c2ccc(C(C)C)cc2)n1-c1ccc(F)cc1`, the minimal inhibitory concentration (MIC) in series [12] was determined as 0.12 µM (≈ 0.0471 µg/mL). With `O=c1nc(N2CCN(CC3CCCCC3)CC2)sc2c([N+](=O)[O-])cc(C(F)(F)F)cc12` [MACOZINONE], the MIC came out at 0.19 ng/mL in series [4] and 0.19 ng/mL (≈ 0.416 nM) in series [5]. In the case of `C[C@H]1COC2(CCN(c3nc(=S)c4cc(C(F)(F)F)cc([N+](=O)[O-])c4s3)CC2)O1`, in [13], the MIC came to 0.02 µM (≈ 0.00895 µg/mL). Consider `c1cc2c(s1)CCOC21CCN(Cc2ccc3c(c2)OCCO3)CC1`, for which the MIC in [8] stood at 0.3 µM (≈ 0.107 µg/mL).

As to `Cc1cn2c(C(=O)NCc3ccc(N4CCC(c5ccc(OC(F)(F)F)cc5)CC4)cc3)c(C)nc2s1`, the MIC in series [14] amounted to 0.0009 µM (≈ 0.000476 µg/mL). `Cc1ccc(-c2nc3ccc(C)cn3c2CC(=O)N(C)C)cc1` [ZOLPIDEM]: the MIC in series [9] turned out to be 10 µM (≈ 3.07 µg/mL).

With `Cc1c(CN2CCN(C)CC2)cc(-c2ccc(Cl)cc2)n1-c1ccc(Cl)cc1`, the MIC in series [12] amounted to 3.62 µM (≈ 1.5 µg/mL).

On to `Cc1cn2c(C(=O)NCc3ccc(C(F)(F)F)cc3)c(C)nc2s1`, for which, in series [14], the MIC was 0.006 µM (≈ 0.00212 µg/mL). In the case of `O=C(C1CCN(c2nnc(-n3cccc3)s2)CC1)N1CCC(Cc2ccccc2)CC1`, the MIC in series [2] was found to be 4 µM (≈ 1.74 µg/mL). The compound `CCc1nc2ccc(Cl)cn2c1C(=O)NCc1ccc(N2CCC(c3ccc(OC(F)(F)F)cc3)CC2)cc1` [TELACEBEC] displayed a bioavailability in series [15] of 90%. Further, the MIC50 in [4] was 0.0027 µM (≈ 0.0015 µg/mL); in series [16], 0.00028 µM (≈ 0.000156 µg/mL). In the case of `COc1ccc(CNc2nc3cc(C(F)(F)F)ccc3nc2C(=O)O)cc1`, the MIC in series [4] amounted to 3.1 µM. Same read-out and setting: the value for `C[C@H]1COC2(CCN(c3nc(=O)c4cc(C(F)(F)F)cc(-n5cccc5)c4s3)CC2)O1` was 0.35 µM. As for `CC(C)=CCC/C(C)=C/CNCCNC1C2CC3CC(C2)CC1C3` (stereo not drawn) [SQ109], the MIC in series [2] turned out to be 0.78 µM (≈ 0.258 µg/mL).

For `O=c1nc(N2CCN(CC3CCCCC3)CC2)sc2c(-n3cccc3)cc(C(F)(F)F)cc12`, in [4], the minimum inhibitory concentration (MIC) came to 0.34 µM. For `CCCCCCc1ccc(Oc2ccccc2C)c(O)c1`, in [1], the TIME stood at 0.4 h. Further, in [2], the MIC stood at 8.46 µM (≈ 2.41 µg/mL).

Consider `CCc1ccc([C@H]2C[C@@H](C(F)(F)F)n3ncc(C(=O)NCc4ccc5c(c4)OCO5)c3N2)cc1`, for which the MIC in series [8] is 0.16 µM (≈ 0.0756 µg/mL). For the compound `Cc1c(OCC(F)(F)F)ccnc1C[S+]([O-])c1nc2ccccc2[nH]1` (stereo not drawn) [LANSOPRAZOLE], the IC50 in series [4] came out at 2200 nM. Regarding `CN(C)c1ccc(-c2nc3cc(F)c(-n4ccnc4)cc3n2Cc2ccccc2)cc1`, the MIC in [11] stood at 30.3 µM (≈ 12.5 µg/mL).

Regarding `CC1(C)CCC(NC(=O)c2cc3c(Cl)cc(Cl)cc3[nH]2)CC1`, the MIC in [3] is 0.015 µM (≈ 0.00509 µg/mL). Take `OB1c2ccccc2N=C(S)N1c1cccnc1`: the minimal inhibitory concentration (MIC) in series [17] amounted to 31.4 µM (≈ 8.01 µg/mL). As for `O=C(Nc1nnc(-c2ccc([N+](=O)[O-])cc2)s1)C1CC(=O)N(c2ccccc2)C1` (stereo not drawn), the MIC in series [18] is 61 µM (≈ 25 µg/mL).

The values above are taken from ChEMBL document CHEMBL5244210, “Drug discovery in tuberculosis. New drug targets and antimycobacterial agents” (Eur J Med Chem, 2018).
